Source: patent US11192899B2 (MERCK PATENT GMBH, priority 2017, dated 2021)
Like-named read-outs stand apart in the source and are kept apart here.

Legend:
Assay type in all cases: cell-based
human A2A receptor = target: T1, human A2A receptor (Homo sapiens, UniProt P29274); assay: cAMP HTRF functional assay, recombinant HEK293 cells expressing human A2A receptor, agonist NECA
T1 construct: expressed in transfected cells; host or cells: HEK293
Procedure: (§1) The functional activities of human A2A, A2B, A1 and A3 receptors were determined by quantification of cAMP, being the second messenger for adenosine receptors.
(§2) Obtained raw data were normalized against the inhibitor control and the neural control (DMSO) and the normalized data were fitted using GeneData software.

human A1 receptor = target: T2, human A1 receptor (Homo sapiens, UniProt P30542); assay: cAMP HTRF functional assay, recombinant CHO cells expressing human A1 receptor, forskolin and agonist CPA
T2 construct: expressed in transfected cells; host or cells: CHO
T2 sequence (P30542 1-326): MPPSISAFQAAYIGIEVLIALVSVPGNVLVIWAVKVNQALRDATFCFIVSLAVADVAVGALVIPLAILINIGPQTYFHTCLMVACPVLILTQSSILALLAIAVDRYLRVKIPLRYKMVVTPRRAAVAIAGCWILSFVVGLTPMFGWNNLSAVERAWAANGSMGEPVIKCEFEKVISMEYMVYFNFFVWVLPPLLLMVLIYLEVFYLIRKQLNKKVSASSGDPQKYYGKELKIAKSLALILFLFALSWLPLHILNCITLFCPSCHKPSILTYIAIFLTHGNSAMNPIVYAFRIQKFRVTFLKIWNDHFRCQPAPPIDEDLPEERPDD
Procedure: as §1
(§3) For human A1 and A3 receptors, recombinant CHO cells, expressing either A1 or A3-receptor, were used. As both receptors couple to Gi proteins, the assay protocol was adapted:
(§4) Cells were seeded into 384-well plates, forskolin, test compounds and agonists (CPA for A1- and IB-MECA for A3-receptor) were added. After 30 min incubation, HTRF reagents (cAMP dynamic 2, Cis Bio) were added and the cellular cAMP levels were determined using the ENVISION (Perkin Elmer) plate reader.
as §2

human A3 receptor = target: T3, human A3 receptor (Homo sapiens, UniProt P0DMS8); assay: cAMP HTRF functional assay, recombinant CHO cells expressing human A3 receptor, forskolin and agonist IB-MECA
T3 construct: expressed in transfected cells; host or cells: CHO
T3 sequence (P0DMS8 1-318): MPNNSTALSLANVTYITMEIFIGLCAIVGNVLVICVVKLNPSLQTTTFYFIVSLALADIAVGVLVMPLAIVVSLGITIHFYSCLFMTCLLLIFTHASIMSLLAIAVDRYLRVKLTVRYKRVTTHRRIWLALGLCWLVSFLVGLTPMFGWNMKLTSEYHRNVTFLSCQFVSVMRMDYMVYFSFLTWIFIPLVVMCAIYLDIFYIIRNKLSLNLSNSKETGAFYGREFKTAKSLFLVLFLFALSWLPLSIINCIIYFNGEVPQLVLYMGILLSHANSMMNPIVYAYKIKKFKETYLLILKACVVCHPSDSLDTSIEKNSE
Procedure: as §1, §3, §4, §2

A2B receptors = target: T4, A2B receptors (Homo sapiens, UniProt P29275); assay: cAMP HTRF functional assay, recombinant HEK293 cells expressing human A2B receptor, agonist NECA; set-up: expressed in transfected cells; host or cells: HEK293
T4 sequence (P29275 1-332): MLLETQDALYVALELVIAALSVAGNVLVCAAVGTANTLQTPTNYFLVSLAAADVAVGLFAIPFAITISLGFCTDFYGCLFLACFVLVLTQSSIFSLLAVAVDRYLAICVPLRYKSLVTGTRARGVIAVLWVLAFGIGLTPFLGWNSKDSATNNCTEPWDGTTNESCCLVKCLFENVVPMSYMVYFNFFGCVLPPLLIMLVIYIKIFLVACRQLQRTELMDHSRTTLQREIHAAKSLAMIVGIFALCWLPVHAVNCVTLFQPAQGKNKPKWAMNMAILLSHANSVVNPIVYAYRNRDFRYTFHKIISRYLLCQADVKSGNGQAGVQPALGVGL
Procedure: as §1, §2

[1] = recombinant HEK293 cells, cAMP, agonist NECA

T1 sequence (P29274 whole entry): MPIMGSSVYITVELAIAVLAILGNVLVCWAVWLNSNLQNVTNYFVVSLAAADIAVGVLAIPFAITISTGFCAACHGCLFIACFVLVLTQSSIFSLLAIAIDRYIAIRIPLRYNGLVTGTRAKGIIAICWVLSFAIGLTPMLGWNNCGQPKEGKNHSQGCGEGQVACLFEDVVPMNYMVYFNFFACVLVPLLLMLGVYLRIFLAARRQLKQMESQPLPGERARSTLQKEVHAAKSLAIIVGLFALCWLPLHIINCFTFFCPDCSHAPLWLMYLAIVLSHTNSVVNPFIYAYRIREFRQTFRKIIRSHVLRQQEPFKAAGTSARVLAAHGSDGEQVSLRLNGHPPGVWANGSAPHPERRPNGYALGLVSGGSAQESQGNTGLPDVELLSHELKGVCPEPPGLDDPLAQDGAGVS

Molecule	IC50 (human A2A receptor; [1])	IC50 (human A1 receptor)	IC50 (human A3 receptor)	IC50 (A2B receptors; [1])	IC50 (human A2A receptor)	IC50 (A2B receptors)
4-hydroxy-N-[8-methoxy-5-(2-methylphenyl)quinoxalin-2-yl]-4-methylpiperidine-1-carboxamide [compound 29]	< 100 nM	> 1000 nM	> 1000 nM	< 1000 nM	–	–
COc1ccc(C2CCOCC2)c2ncc(NC(=O)c3coc(C)n3)nc12 [compound 16]	–	> 1000 nM	> 1000 nM	–	< 100 nM	> 1000 nM
CCCCc1ccc(OC)c2nc(NC(=O)N3CCC(C)(O)CC3)cnc12 [compound 108, N-(5-butyl-8-methoxyquinoxalin-2-yl)-4-hydroxy-4-methylpiperidine-1-carboxamide]	–	> 1000 nM	–	–	< 100 nM	> 1000 nM
COCCOc1cccc(-c2ccc(OC)c3nc(NC(=O)N4CCC(C)(O)CC4)cnc23)c1 [compound 117, 4-hydroxy-N-{8-methoxy-5-[3-(2-methoxyethoxy)phenyl]quinoxalin-2-yl}-4-methylpiperidine-1-carboxamide]	–	> 1000 nM	–	–	< 100 nM	> 1000 nM
COCCOCCn1cc(-c2ccc(OC)c3nc(NC(=O)N4CCC(C)(O)CC4)cnc23)cn1 [compound 119, 4-hydroxy-N-(8-methoxy-5-{1-[2-(2-methoxyethoxy)ethyl]-1H-pyrazol-4-yl}quinoxalin-2-yl)-4-methylpiperidine-1-carboxamide]	–	> 1000 nM	–	–	< 100 nM	> 1000 nM
COc1ccc(N2CCCCCC2)c2ncc(NC(=O)C3CC3)nc12 [compound 122, N-[5-(azepan-1-yl)-8-methoxyquinoxalin-2-yl]cyclopropanecarboxamide]	–	> 1000 nM	> 1000 nM	–	< 100 nM	–
COc1ccc(-c2cc(F)ccc2F)c2ncc(NC(=O)c3cnc(C)o3)nc12 [compound 128, N-[5-(2,5-difluorophenyl)-8-methoxyquinoxalin-2-yl]-2-methyl-1,3-oxazole-5-carboxamide]	–	> 1000 nM	< 1000 nM	–	< 100 nM	–
COc1ccc(C2CCOCC2)c2ncc(NC(=O)c3cnc(C)o3)nc12 [compound 130, N-[8-methoxy-5-(oxan-4-yl)quinoxalin-2-yl]-2-methyl-1,3-oxazole-5-carboxamide]	–	> 1000 nM	–	–	< 10 nM	< 100 nM
COc1ccc(C2=CCOCC2)c2ncc(NC(=O)c3csc(N)n3)nc12 [compound 139, 2-amino-N-[5-(3,6-dihydro-2H-pyran-4-yl)-8-methoxyquinoxalin-2-yl]-1,3-thiazole-4-carboxamide]	–	> 1000 nM	–	–	< 100 nM	> 1000 nM
COc1ccc(C2=CCOCC2)c2ncc(NC(=O)c3coc(CN)c3)nc12 [compound 142, 5-(aminomethyl)-N-[5-(3,6-dihydro-2H-pyran-4-yl)-8-methoxyquinoxalin-2-yl]furan-3-carboxamide]	–	> 1000 nM	–	–	< 10 nM	> 1000 nM
CCOC(=O)c1nnc(NC(=O)Nc2cnc3c(C4=CCOCC4)ccc(OC)c3n2)s1 [compound 143, ethyl 5-({[5-(3,6-dihydro-2H-pyran-4-yl)-8-methoxyquinoxalin-2-yl]carbamoyl}amino)-1,3,4-thiadiazole-2-carboxylate]	–	> 1000 nM	–	–	< 100 nM	> 1000 nM
COc1ccc(-c2ccccc2)c2ncc(NC(=O)C3(C(=O)N(C)C)CC3)nc12 [compound 149, N′1-(8-methoxy-5-phenylquinoxalin-2-yl)-N1,N1-dimethylcyclopropane-1,1-dicarboxamide]	–	> 1000 nM	< 1000 nM	–	< 100 nM	–
COCCOc1cccc(-c2ccc(OC)c3nc(NC(=O)c4nnc(C)s4)cnc23)c1 [compound 152, N-{8-methoxy-5-[3-(2-methoxyethoxy)phenyl]quinoxalin-2-yl}-5-methyl-1,3,4-thiadiazole-2-carboxamide]	–	–	> 1000 nM	–	< 100 nM	–
COc1ccc(C2=CCOCC2)c2ncc(NC(=O)c3cnc[nH]3)nc12 [compound 159, N-[5-(3,6-dihydro-2H-pyran-4-yl)-8-methoxyquinoxalin-2-yl]-1H-imidazole-5-carboxamide]	–	< 1000 nM	–	–	< 100 nM	< 100 nM
COc1ccc(-c2ccccc2)c2ncc(NC(=O)c3cnc[nH]3)nc12 [compound 160, N-(8-methoxy-5-phenylquinoxalin-2-yl)-1H-imidazole-5-carboxamide]	–	> 1000 nM	–	–	< 100 nM	< 100 nM

Other lines, results leading:

IC50 (human A2A receptor; [1])	IC50 (human A1 receptor)	IC50 (human A3 receptor)	IC50 (A2B receptors; [1])	IC50 (human A2A receptor)	IC50 (A2B receptors)	Molecule
–	< 1000 nM	> 1000 nM	–	< 10 nM	< 100 nM	COc1ccc(-c2ccccc2)c2ncc(NC(=O)c3cnc(C)s3)nc12 [compound 48]
–	< 1000 nM	< 1000 nM	–	< 10 nM	< 100 nM	COc1ccc(-c2ccccc2)c2ncc(NC(=O)c3cnc(C)o3)nc12 [compound 105, N-(8-methoxy-5-phenylquinoxalin-2-yl)-2-methyl-1,3-oxazole-5-carboxamide]
–	< 1000 nM	> 1000 nM	–	< 10 nM	< 100 nM	COc1ncc(C2CCOCC2)c2ncc(NC(=O)C3CC3)nc12 [compound 106, Cyclopropanecarboxylic acid [5-methoxy-8-(tetrahydro-pyran-4-yl)-pyrido[3,4-b]pyrazin-3-yl]-amide]
–	< 1000 nM	–	–	< 10 nM	> 1000 nM	COc1ccc(C2=CCOCC2)c2ncc(NC(=O)N3CCC(C)(O)CC3)nc12 [compound 109, N-[5-(3,6-dihydro-2H-pyran-4-yl)-8-methoxyquinoxalin-2-yl]-4-hydroxy-4-methylpiperidine-1-carboxamide]
–	< 1000 nM	–	–	< 100 nM	> 1000 nM	COc1ccc(-c2cnn(Cc3ccccn3)c2)c2ncc(NC(=O)N3CCC(C)(O)CC3)nc12 [compound 114, 4-hydroxy-N-(8-methoxy-5-{1-[(pyridin-2-yl)methyl]-1H-pyrazol-4-yl}quinoxalin-2-yl)-4-methylpiperidine-1-carboxamide]
–	< 1000 nM	–	–	< 100 nM	> 1000 nM	COc1ccc(-c2cnn(C3CN(C(=O)OC(C)(C)C)C3)c2)c2ncc(NC(=O)N3CCC(C)(O)CC3)nc12 [compound 116, tert-butyl 3-(4-{2-[(4-hydroxy-4-methylpiperidine-1-carbonyl)amino]-8-methoxyquinoxalin-5-yl}-1H-pyrazol-1-yl)azetidine-1-carboxylate]
–	< 1000 nM	–	–	< 10 nM	< 100 nM	COc1ccc(C2=CCOCC2)c2ncc(NC(=O)c3cnc(C)o3)nc12 [compound 132, N-[5-(3,6-dihydro-2H-pyran-4-yl)-8-methoxyquinoxalin-2-yl]-2-methyl-1,3-oxazole-5-carboxamide]
–	< 100 nM	–	–	< 10 nM	< 100 nM	COc1ccc(C2=CCOCC2)c2ncc(NC(=O)c3cnn(C)c3)nc12 [compound 135, N-[5-(3,6-dihydro-2H-pyran-4-yl)-8-methoxyquinoxalin-2-yl]-1-methyl-1H-pyrazole-4-carboxamide]
–	< 1000 nM	–	–	< 10 nM	> 1000 nM	COc1ccc(C2=CCOCC2)c2ncc(NC(=O)C3(N)CC3)nc12 [compound 137, 1-amino-N-[5-(3,6-dihydro-2H-pyran-4-yl)-8-methoxyquinoxalin-2-yl]cyclopropane-1-carboxamide]
–	< 1000 nM	–	–	< 10 nM	< 100 nM	COc1ccc(C2=CCOCC2)c2ncc(NC(=O)c3ncc(C4CCOC4)s3)nc12 (stereo not shown) [compound 140, N-[5-(3,6-dihydro-2H-pyran-4-yl)-8-methoxyquinoxalin-2-yl]-5-(oxolan-3-yl)-1,3-thiazole-2-carboxamide]
